Measured values as given in ChEMBL document CHEMBL3885881, “DrugMatrix”.

Organism: Rattus norvegicus
Test: DrugMatrix - Regimen: Daily Repeat
Format: toxicity, organism-based, Sprague-Dawley
Design: regimen Daily Repeat, gender Male, age 6-8 weeks
Conditions: in vivo, po, route oral GAVAGE, vehicle .5 % CMC; for BASOPHIL / EOSINOPHIL / ERYTHROCYTE COUNT / HEMATOCRIT / HEMOGLOBIN / LEUKOCYTE COUNT / LYMPHOCYTE / MEAN CORPUSCULAR HEMOGLOBIN / MEAN CORPUSCULAR HEMOGLOBIN CONCENTRATION / MEAN CORPUSCULAR VOLUME / MONOCYTE / NEUTROPHIL / PLATELET COUNT: tissue Blood; for ALANINE AMINOTRANSFERASE / ALBUMIN / ALKALINE PHOSPHATASE / ASPARTATE AMINOTRANSFERASE / BLOOD UREA NITROGEN / CHLORIDE / CHOLESTEROL / CREATINE PHOSPHOKINASE / CREATININE / GLUCOSE / PHOSPHORUS / POTASSIUM / SODIUM / TOTAL BILIRUBIN / TOTAL PROTEIN: tissue Plasma
[1] = 0 mg/kg, 72 h, dose level Control, time 3 day
[2] = 0 mg/kg, 120 h, dose level Control, time 5 day
[3] = 25 mg/kg, 72 h, dose level Low, time 3 day
[4] = 25 mg/kg, 120 h, dose level Low, time 5 day

C=C(CC)C(=O)c1ccc(OCC(=O)O)c(Cl)c1Cl [ETHACRYNIC ACID]
BASOPHIL [1]: 0%
EOSINOPHIL [1]: 0%
ERYTHROCYTE COUNT [1]: 6.19 x10E6/uL
HEMATOCRIT [1]: 36.94%
HEMOGLOBIN [1]: 14.58 G/DL
LEUKOCYTE COUNT [1]: 11.54 x10E3/uL
LYMPHOCYTE [1]: 84.8%
MEAN CORPUSCULAR HEMOGLOBIN [1]: 23.58 pg
MEAN CORPUSCULAR HEMOGLOBIN CONCENTRATION [1]: 39.44 G/DL
MEAN CORPUSCULAR VOLUME [1]: 59.76 fL
MONOCYTE [1]: 1.4%
NEUTROPHIL [1]: 13.8%
PLATELET COUNT [1]: 1068.8 x10E3/uL
ALANINE AMINOTRANSFERASE [1]: 38.17 u/L
ALBUMIN [1]: 3.88 G/DL
ALKALINE PHOSPHATASE [1]: 391.33 u/L
ASPARTATE AMINOTRANSFERASE [1]: 69.83 u/L
BLOOD UREA NITROGEN [1]: 15 mg/dL
CHLORIDE [1]: 104.17 MEQ/L
CHOLESTEROL [1]: 72.17 mg/dL
CREATINE PHOSPHOKINASE [1]: 174.33 u/L
CREATININE [1]: 0.58 mg/dL
GLUCOSE [1]: 192.67 mg/dL
PHOSPHORUS [1]: 10.52 mg/dL
POTASSIUM [1]: 6.8 MEQ/L
SODIUM [1]: 149.67 MEQ/L
TOTAL BILIRUBIN [1]: 0.78 mg/dL
TOTAL PROTEIN [1]: 6.28 G/DL
BASOPHIL [2]: 0%
EOSINOPHIL [2]: 0.17%
ERYTHROCYTE COUNT [2]: 6.72 x10E6/uL
HEMATOCRIT [2]: 40.02%
HEMOGLOBIN [2]: 15.83 G/DL
LEUKOCYTE COUNT [2]: 9.5 x10E3/uL
LYMPHOCYTE [2]: 87.17%
MEAN CORPUSCULAR HEMOGLOBIN [2]: 23.57 pg
MEAN CORPUSCULAR HEMOGLOBIN CONCENTRATION [2]: 39.62 G/DL
MEAN CORPUSCULAR VOLUME [2]: 59.55 fL
MONOCYTE [2]: 1.67%
NEUTROPHIL [2]: 11%
PLATELET COUNT [2]: 1053.67 x10E3/uL
ALANINE AMINOTRANSFERASE [2]: 26.33 u/L
ALBUMIN [2]: 4.02 G/DL
ALKALINE PHOSPHATASE [2]: 316.67 u/L
ASPARTATE AMINOTRANSFERASE [2]: 61.33 u/L
BLOOD UREA NITROGEN [2]: 18.67 mg/dL
CHLORIDE [2]: 108 MEQ/L
CHOLESTEROL [2]: 65.17 mg/dL
CREATINE PHOSPHOKINASE [2]: 161.17 u/L
CREATININE [2]: 0.75 mg/dL
GLUCOSE [2]: 177.33 mg/dL
PHOSPHORUS [2]: 9.72 mg/dL
POTASSIUM [2]: 6.18 MEQ/L
SODIUM [2]: 150.5 MEQ/L
TOTAL BILIRUBIN [2]: 0.68 mg/dL
TOTAL PROTEIN [2]: 6.55 G/DL
BASOPHIL [3]: 0%
EOSINOPHIL [3]: 0%
ERYTHROCYTE COUNT [3]: 5.63 x10E6/uL
HEMATOCRIT [3]: 33.93%
HEMOGLOBIN [3]: 13.5 G/DL
LEUKOCYTE COUNT [3]: 12.83 x10E3/uL
LYMPHOCYTE [3]: 81%
MEAN CORPUSCULAR HEMOGLOBIN [3]: 23.97 pg
MEAN CORPUSCULAR HEMOGLOBIN CONCENTRATION [3]: 39.8 G/DL
MEAN CORPUSCULAR VOLUME [3]: 60.23 fL
MONOCYTE [3]: 2.67%
NEUTROPHIL [3]: 16.33%
PLATELET COUNT [3]: 1220 x10E3/uL
ALANINE AMINOTRANSFERASE [3]: 34.67 u/L
ALBUMIN [3]: 3.8 G/DL
ALKALINE PHOSPHATASE [3]: 289.67 u/L
ASPARTATE AMINOTRANSFERASE [3]: 61.67 u/L
BLOOD UREA NITROGEN [3]: 16.33 mg/dL
CHLORIDE [3]: 102.67 MEQ/L
CHOLESTEROL [3]: 78 mg/dL
CREATINE PHOSPHOKINASE [3]: 150.67 u/L
CREATININE [3]: 0.67 mg/dL
GLUCOSE [3]: 178 mg/dL
PHOSPHORUS [3]: 11.3 mg/dL
POTASSIUM [3]: 6.67 MEQ/L
SODIUM [3]: 148 MEQ/L
TOTAL BILIRUBIN [3]: 0.5 mg/dL
TOTAL PROTEIN [3]: 6.23 G/DL
BASOPHIL [4]: 0%
EOSINOPHIL [4]: 0%
ERYTHROCYTE COUNT [4]: 6.67 x10E6/uL
HEMATOCRIT [4]: 39.93%
HEMOGLOBIN [4]: 15.7 G/DL
LEUKOCYTE COUNT [4]: 13.37 x10E3/uL
LYMPHOCYTE [4]: 91.33%
MEAN CORPUSCULAR HEMOGLOBIN [4]: 23.6 pg
MEAN CORPUSCULAR HEMOGLOBIN CONCENTRATION [4]: 39.37 G/DL
MEAN CORPUSCULAR VOLUME [4]: 59.9 fL
MONOCYTE [4]: 2.33%
NEUTROPHIL [4]: 6.33%
PLATELET COUNT [4]: 1183.33 x10E3/uL
ALANINE AMINOTRANSFERASE [4]: 25 u/L
ALBUMIN [4]: 4.03 G/DL
ALKALINE PHOSPHATASE [4]: 323.33 u/L
ASPARTATE AMINOTRANSFERASE [4]: 56.67 u/L
BLOOD UREA NITROGEN [4]: 14.33 mg/dL
CHLORIDE [4]: 104.33 MEQ/L
CHOLESTEROL [4]: 77.33 mg/dL
CREATINE PHOSPHOKINASE [4]: 160 u/L
CREATININE [4]: 0.6 mg/dL
GLUCOSE [4]: 169 mg/dL
PHOSPHORUS [4]: 10.6 mg/dL
POTASSIUM [4]: 6.23 MEQ/L
SODIUM [4]: 151 MEQ/L
TOTAL BILIRUBIN [4]: 0.6 mg/dL
TOTAL PROTEIN [4]: 6.77 G/DL
